Results from ChEMBL document CHEMBL2074508, “Functional characterization of the human multidrug transporter, ABCG2, expressed in insect cells” (Biochem Biophys Res Commun, 2001).

These molecules were tested against T1, Broad substrate specificity ATP-binding cassette transporter ABCG2 (Homo sapiens, UniProt Q9UNQ0) (assay: TP_TRANSPORTER: inhibition of ATPase in membrane vesicle from BCRP-expressing Sf9 cells). Settings: not given.
T1 sequence (Q9UNQ0 whole entry): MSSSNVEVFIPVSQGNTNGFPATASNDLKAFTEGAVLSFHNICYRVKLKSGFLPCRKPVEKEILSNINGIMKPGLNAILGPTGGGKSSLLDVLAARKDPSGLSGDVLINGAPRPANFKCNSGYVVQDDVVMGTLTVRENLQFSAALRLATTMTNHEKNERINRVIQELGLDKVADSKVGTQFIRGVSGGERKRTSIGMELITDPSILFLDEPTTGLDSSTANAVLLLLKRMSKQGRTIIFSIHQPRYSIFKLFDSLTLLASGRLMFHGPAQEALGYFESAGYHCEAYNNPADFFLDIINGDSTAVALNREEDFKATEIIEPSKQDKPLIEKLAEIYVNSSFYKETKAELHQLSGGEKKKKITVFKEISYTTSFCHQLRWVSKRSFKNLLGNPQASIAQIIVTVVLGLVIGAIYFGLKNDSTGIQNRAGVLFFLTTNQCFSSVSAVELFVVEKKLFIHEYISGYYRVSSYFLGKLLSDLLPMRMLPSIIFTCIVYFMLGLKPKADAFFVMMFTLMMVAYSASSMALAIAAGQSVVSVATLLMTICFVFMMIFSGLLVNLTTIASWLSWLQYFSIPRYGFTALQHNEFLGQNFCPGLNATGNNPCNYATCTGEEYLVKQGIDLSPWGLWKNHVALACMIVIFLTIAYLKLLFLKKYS
Type: functional, cell membranes

SMILES	Ki [µM]
COc1ccc2c3c([nH]c2c1)[C@H](C=C(C)C)N1C(=O)[C@@H]2CCCN2C(=O)[C@@H]1C3 [FUMITREMORGIN]	1.3

These molecules were tested against T1, Broad substrate specificity ATP-binding cassette transporter ABCG2 (assay: TP_TRANSPORTER: ATP hydrolysis in membrane vesicle from BCRP-expressing Sf9 cells). Settings: read-out: Kact.
Type: functional, cell membranes

EC50 [µM]	SMILES
1	COc1cc2nc(N3CCN(C(=O)c4ccco4)CC3)nc(N)c2cc1OC [PRAZOSIN]
4.5	COC(=O)c1ccccc1-c1c2ccc(=N)cc-2oc2cc(N)ccc12 [RHODAMINE123]
2.5	COc1cccc2c1C(=O)c1c(O)c3c(c(O)c1C2=O)C[C@@](O)(C(C)=O)C[C@@H]3O[C@H]1C[C@H](N)[C@H](O)[C@H](C)O1 [DAUNORUBICIN]
5	COc1cccc2c1C(=O)c1c(O)c3c(c(O)c1C2=O)C[C@@](O)(C(=O)CO)C[C@@H]3O[C@H]1C[C@H](N)[C@H](O)[C@H](C)O1 [DOXORUBICIN]

SMILES	EC50 [µM]
O=C1c2c(O)ccc(O)c2C(=O)c2c(NCCNCCO)ccc(NCCNCCO)c21 [MITOXANTRONE]	7
